Patent EP1105728B1, “MODULATING MULTIPLE LINEAGE KINASE PROTEINS” (CEPHALON, INC., priority 1998, dated 2000)
Where two headings read alike, the source gives them in different places.

Assays:
JNK = JNK activity immunoprecipitated from THP-1 cells; format: cell-based; conditions: Homo sapiens, read-out: THP-1 Cells JNK % inh. 500 nM
Method: Assays for JNK activity were performed after immunoprecipitating the JNK protein from an extract of lysed THP-1 cells. Pelleted THP-1 cells were lysed on ice for 15 min in 500 µl of Frac buffer (10 mM Tris-Hcl, pH 7.5,50 mM NaCl, 30 µM sodium pyrophosphate, 1 mg/ml BSA, 1% Triton-X-100). The extract was centrifuged for 10 min at 14K and 5 µl of JNK antibody (Santa Cruz) was added to the supernatant. The extract was rotated for 60 min at 4°C, 75 µl of washed protein A Sepharose (20% w/v in Frac) added and the extract rotated another 30 min to bind the antibody complex to the protein A Sepharose. The protein A Sepharose was washed twice with Frac buffer, once with 20 mM Hepes, pH 7.6, 20 mM MgCl2, 2 mM DTT, then incubated for 15 min at 30° C in 30 µl of kinase buffer (20 mM hepes, 20 mM MgCl2, 2 MM DTT, 1 µg recombinant c-jun, and 2 µM ATP-γ-^32P, 2 µCi. The reaction was terminated by the addition of 10 µl of 4X SDS gel loading buffer, heated for 3 min at 80° C, and the proteins were analyzed on a 10% SDS gel. The gel was dried, exposed to a Phosphorimager plate, and the radioactive bands were analyzed on a Phosphorimager.

MEKK1 = target: T1, MEKK1 (Homo sapiens, UniProt Q13233); assay: JNK activity in Cos7 cells overexpressing HA-JNK1 with MEKK1; format: cell-based; conditions: 500 nM; Cos7 cells overexpressing HA-JNK1 with MEKK1 (Figure 15C)
T1 construct: expressed in transfected cells; host or cells: Cos7

TNF-α = assay: Induction of TNF-α by LPS in THP-1 cells (ELISA); format: cell-based; conditions: Homo sapiens
Method: THP-1 cells were grown in RPMI 1640 medium supplemented with 10% fetal bovine serum. LPS (E.coli serotype 0111.B4, TCA extracted) was purchased from Sigma and dissolved in PBS. ELISA kits for assaying IL-1 and TNF-α were purchased from Boerhinger-Mannheim and assays on THP-1 culture medium were performed as directed by the manufacturer. Standard curves according to directions were obtained with each assay.
Experiments were performed in 12 well culture plates with either 1 or 2 ml of THP-1 cells at 4 X 10^5 cells/ml. IL-1 and TNF-α were induced by the addition of LPS to the culture medium and the medium collected at various times thereafter for cytokine assay. Cells were removed by centrifugation and the supernatants frozen at -70°C until assay. To minimize costs experiments were performed in duplicate cultures and the duplicate supernatants were pooled after centrifugation. Each pooled supernatant was assayed in duplicate. Stock solutions of indolo- and fused pyrrolocarbazoles in 100% DMSO were diluted to the desired concentrations in either medium containing 10% fetal bovine serum or in medium containing 0.5 mg/ml BSA. Unless otherwise stated, compounds were added to the THP-1 cells 1 hr prior to the addition of LPS.

lumbar motor neurons = assay: Developmentally regulated motor neuronal death in the chick embryo; format: in vivo
Source text: The present example is described in detail in Glicksman, et al., J. Neurobiol., 1998, 35, 361-370, which is incorporated herein by reference in its entirety. On E6, a window in the shell of chick eggs (Spafas, Preston, CT) was made and either vehicle (5% Solutol ™ HS 15, polyethylene glycol 660 hydroxysterate; BASF Aktiengesellschaft, Ludwigshafen, Germany (in phosphate-buffered saline, pH 7.2)) or the specified dose of Compound III-3 in the vehicle was applied directly onto the vascularized chorioallantoic membrane-once daily from E6 to E9 as described in Oppenheim, et al., Science, 1991, 251, 1616-1617, which is incorporated herein by reference in its entirety). Embryos were sacrificed at E10 and their spinal cords were removed, fixed in Carnoy's solution (10% glacial acetic acid, 60% absolute ethanol, 30% chloroform), processed for serial paraffin sections, and stained with thionin. Every 20th section of lumbar segments 1-8 was counted according to previously described criteria (Clarke, et al., Methods In Cell Biology: Cell Death, 1995, Schwart & Osborne, Eds., Academic Press, New York, pp.277-321, which is incorporated herein by reference in its entirety).

SNB motor neurons = assay: Developmentally regulated motor neuronal death in the neonatal rat (SNB); format: in vivo
Method: Untimed pregnant Sprague-Dawley rats were obtained from Harlan Laboratories (Indianapolis, IN). Female rat pups were injected daily, subcutaneously (SC), over the target perineal muscles, with Compound III-3 in 5% Solutol ™ HS 15 or vehicle along starting on the day of birth (P1) and continuing for 5 days (P5). On P10 or P60, pups were decapitated, blood was collected in heparinized capillary tubes, and the region of the spinal cord containing the sexually dimorphic spinal nucleus of the bulbocavemosus (SNB) and the perineal area containing the bulbocavernosus (BC) and levator ani (LA) muscles were dissected after perfusion of the animals with saline/formalin. The region of the spinal cord containing the SNB was postfixed, embedded in Paraplast, sectioned at 10µm, and stained with Cresylecht violet (Nordeen, et al., Science, 1985, 229, 671-673, which is incorporated herein by reference in its entirety). Motor neurons were counted at X500 in serial sections from the lumbar 5 to the sacral 1 region of the spinal cord as described previously (Nordeen, et al., supra). The microscopic enumeration was made on coded sections by an observer blinded to the treatment groups. Motor neuron counts were corrected for cell size and section thickness (Konisgsmark, Contemporary Research Methods in Neuroanatomy, Nauta & Ebbesson, Eds., 1970, Springer-Verlag, New York, pp.315-340, which is incorporated herein by reference in its entirety) and statistical analysis was by one-way analysis ofvariance (ANOVA). Perineal musculature was postfixed, decalcified, embedded in Paraplast, sectioned at I 0µm and stained with Milligan's Trichrome. […] The outline of muscle tissue was traced from alternate sections using a projection microscope (62.5), and the cross-sectional area was measured using a digitizing pad and a computer-based morphometry system (Sigmascan, Jandel Scientific). Muscle volume was calculated by talking the total cross-sectional area and multiplying it by the section thickness, and corrected for the percentage of the structure sampled.

T1 sequence (Q13233 whole entry, species assumed): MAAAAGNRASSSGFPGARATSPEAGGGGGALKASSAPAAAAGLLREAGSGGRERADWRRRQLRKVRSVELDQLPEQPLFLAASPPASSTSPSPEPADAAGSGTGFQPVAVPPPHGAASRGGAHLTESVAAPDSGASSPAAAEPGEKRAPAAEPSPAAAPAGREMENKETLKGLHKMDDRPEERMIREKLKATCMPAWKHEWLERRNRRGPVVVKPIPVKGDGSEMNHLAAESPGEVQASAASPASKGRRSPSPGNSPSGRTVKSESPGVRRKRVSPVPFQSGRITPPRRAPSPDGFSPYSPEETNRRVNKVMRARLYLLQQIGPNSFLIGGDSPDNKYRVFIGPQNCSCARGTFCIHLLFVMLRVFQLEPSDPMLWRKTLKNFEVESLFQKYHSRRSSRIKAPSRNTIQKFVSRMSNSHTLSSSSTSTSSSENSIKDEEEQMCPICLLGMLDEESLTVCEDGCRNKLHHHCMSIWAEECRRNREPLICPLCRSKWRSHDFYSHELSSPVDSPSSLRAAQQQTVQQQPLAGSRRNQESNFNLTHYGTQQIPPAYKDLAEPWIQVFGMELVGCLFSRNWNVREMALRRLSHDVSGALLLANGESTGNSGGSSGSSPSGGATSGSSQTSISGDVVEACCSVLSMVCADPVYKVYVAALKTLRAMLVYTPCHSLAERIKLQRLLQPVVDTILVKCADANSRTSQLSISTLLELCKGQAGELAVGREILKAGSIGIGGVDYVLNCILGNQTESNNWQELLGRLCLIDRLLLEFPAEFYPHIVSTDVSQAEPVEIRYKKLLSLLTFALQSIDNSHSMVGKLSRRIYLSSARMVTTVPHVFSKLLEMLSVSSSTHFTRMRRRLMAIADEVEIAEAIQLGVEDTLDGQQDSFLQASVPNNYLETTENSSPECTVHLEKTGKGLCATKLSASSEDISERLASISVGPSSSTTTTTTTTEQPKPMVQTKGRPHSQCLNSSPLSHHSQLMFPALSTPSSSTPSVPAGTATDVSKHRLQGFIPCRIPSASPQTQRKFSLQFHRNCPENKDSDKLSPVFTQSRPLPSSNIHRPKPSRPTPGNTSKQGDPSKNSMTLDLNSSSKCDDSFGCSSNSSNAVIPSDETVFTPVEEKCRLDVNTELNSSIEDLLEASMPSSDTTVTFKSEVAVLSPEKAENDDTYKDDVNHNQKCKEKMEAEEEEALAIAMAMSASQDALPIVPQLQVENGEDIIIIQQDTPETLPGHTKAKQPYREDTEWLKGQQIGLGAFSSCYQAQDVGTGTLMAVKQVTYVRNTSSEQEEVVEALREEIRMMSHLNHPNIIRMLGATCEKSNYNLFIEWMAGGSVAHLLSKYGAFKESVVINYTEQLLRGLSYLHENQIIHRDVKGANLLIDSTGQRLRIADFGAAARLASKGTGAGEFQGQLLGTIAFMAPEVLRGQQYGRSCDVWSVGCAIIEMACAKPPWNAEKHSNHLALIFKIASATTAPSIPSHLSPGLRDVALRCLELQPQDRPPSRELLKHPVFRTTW

CCSCc1ccc2c(c1)c1c3c(c4c5cc(CSCC)ccc5n5c4c1n2C1CC(O)(C(=O)OC)C5(C)O1)CNC3=O (stereo not drawn) [III-3]
inhibition at 0.5 µM (JNK): 93%
JNK pathway activated by MEKK1 (MEKK1): did not interfere with the JNK pathway
IC50 (TNF-α; THP-1, LPS 2 µg/ml, serum-free medium, read-out: THP-1 Cells TNF-α IC50): 29 nM
IC50 (TNF-α; THP-1 cells, medium containing 10% fetal bovine serum, read-out: IC50 inhibition of the induction of TNF-α): 139 nM
motor neurons rescued (lumbar motor neurons; 1.2 and 1.8 µg/day onto the chorioallantoic membrane): 25%
motor neurons that would normally die rescued (lumbar motor neurons; 2.3 and 7 µg/day onto the chorioallantoic membrane): Forty
rescued motor neurons identifiable morphologically 55 days after the last treatment (SNB motor neurons; 0.5 and 1 mg/kg per day PN 1-5, sacrifice at PN60): 100%
enhancement in motor-neuronal survival (SNB motor neurons; 0.5 and 1 mg/kg per day sc, PN 1-5, female rats): 70%
weight loss, mortality, gross tissue damage (SNB motor neurons; SNB model): no associated weight loss, mortality, or gross tissue damage
